Patent US8653086B2, “Naphthamides as anticancer agents” (Oregon Health & Science University, priority 2008, dated 2014)
Like-named read-outs stand apart in the source and are kept apart here.

Experiments:
A549 cells [1] = test: A549 live cell count, trypan blue; type: cell-based, human; settings: 48 h, live cells counted
Procedure: (§1) (A) Inhibitory effect of CREB-mediated gene transcription by compounds i and ii in HEK 293 cells. Cells were transiently transfected with a plasmid encoding firefly luciferase under the control of three iterative copies of CRE (pCRE-Luc). Compound i or ii was added to the transfected cells in triplicate 30 min prior to the addition of forskolin (Fsk, 10 μM). The luciferase activity was measured using Dual Luciferase Reagent (Promega) and normalized to the co-transfected renilla luciferase (pRL-SV40, Promega). (B) Exponentially growing A549 cells in a 6-well plate (1.5×10^5 cells/well) were treated increasing concentrations of compound i or ii in triplicate for 48 h. […] Data were presented as mean±SD.
(§2) To investigate whether apoptosis was activated upon treatment, A549 cells were treated with either naphthol AS-E phosphate (i, 10 μM) or naphthol AS-E (ii, 10 μM) for 48 h. The cells were then analyzed by flow cytometry after staining with annexin-V and propidium iodide (PI). In this two-dye binding assay, annexin-V will bind phosphatidylserine exposed on the dying apoptotic cell surface while PI will only stain dead cells whose plasma-membrane integrity is compromised. This assay can discriminate intact cells (annexin^−/PI^−), apoptotic cells (annexin^+/PI^−) and necrotic or late apoptotic cells (annexin^+/PI^+).

primary rat neurons = test system: primary rat neurons
Procedure: E18 rat neurons were isolated from Sprague-Dawley rats at 18 days after gestation. The isolated neurons were plated into a 6-well plate coated with poly-D-lysine. On day 5 after plating the neurons, different compounds of indicated concentrations were added (in triplicates) and incubated with the neurons for 48 h. Then the neurons were harvested and the number of live neurons was counted with a hemacytometer after staining with trypan blue. Data were presented as mean±SD.
CREB is a pleiotrophic factor involved in many different cellular processes including neuronal survival. The possibility of neuronal cell death might be a concern for CREB inhibitors in the future clinical applications if they could cross the blood brain barrier. Therefore, the toxicity of naphthol AS-E phosphate (i) or its active form, naphthol AS-E (ii), to primary rat neurons was investigated. Isolated E18 rat neurons were treated with increasing concentrations of naphthol AS-E phosphate (i) or naphthol AS-E (ii) for 48 h. […] At the end of the treatment, the neurons were collected and the number of live neurons were counted using trypan blue exclusion assay (FIG. 3).

A549 cells [2] = test: A549 apoptosis, annexin-V/PI flow cytometry and PARP cleavage; type: cell-based, human; settings: for percentage of cells undergoing apoptosis: 10 μM, 48 h, vehicle 6.3%; for cleavage of poly (ADP-ribose) polymerase (PARP): A549 cells treated with compound
Procedure: as §2

[3] = test system: CREB-mediated gene transcription; test: CRE firefly luciferase reporter assay in HEK 293 cells; type: cell-based; settings: forskolin 10 μM, normalized to renilla luciferase
Procedure: as §1
In this assay, HEK 293 cells were transiently transfected with a luciferase reporter plasmid which expresses firefly luciferase under the control of three copies of CREB-response element (CRE). Additionally, an internal control plasmid constitutively expressing renilla luciferase was co-transfected to normalize transfection efficiency across the wells. The inhibition flirt-fly luciferase transcription seen in HEK 293 cells by compound i was not due to cell death because the firefly luciferase activity was normalized to renilla luciferase activity and the number of live cells after compound treatment was the same for all the different concentrations tested.

[4] = Hydrolysis of naphthol AS-E phosphate in tissue culture media (DMEM), HPLC
Procedure: (A) Representative HPLC chromatograms of aliquots of the incubation mixture containing naphthol AS-E phosphate (i, 500 μM), 1-naphthalenemethanol (1 mM) and DMEM with 10% FBS at different time points. […] 1-Naphthalenemethanol was included as an internal standard. The minor peaks on the chromatograms are components from DMEM, which contains various amino acids, vitamins and carbohydrates. (B) Time-dependent increases of naphthol AS-E during the hydrolysis of naphthol AS-E phosphate. The data were extracted from the experiment presented in (A). The concentration of naphthol AS-E was determined based on the calibration curve shown in (C).
Napthol AS-E phosphate was incubated with tissue culture media (Dulbecco's Modified Eagle Medium, DMEM) containing 10% fetal bovine serum (FBS) at 37° C. along with an internal standard, 1-naphthalenemethanol. The hydrolysis of napthol AS-E phosphate was then monitored by reverse phase HPLC at various time points.

Compound | A549 cell proliferation (A549 cells [1]) | neuronal cell death (primary rat neurons; E18 rat neurons, 48 h, naphthols up to 10 μM, CPT positive control) | percentage of cells undergoing apoptosis (A549 cells [2]) [%] | cleavage of poly (ADP-ribose) polymerase (PARP) (A549 cells [2]) | inhibition of CREB-mediated gene transcription [3] | neuronal cell death (primary rat neurons) | hydrolysis of phosphate i to naphthol ii after 25-h incubation ([4]; DMEM with 10% FBS, 37° C.) | period of constant rate of increase of naphthol AS-E ([4]; DMEM with 10% FBS, initial zero-order kinetics) [h] | hydrolysis in tissue culture media without FBS ([4]; DMEM without FBS, 24 h)
O=C(Nc1ccc(Cl)cc1)c1cc2ccccc2cc1O [naphthol AS-E] | inhibited A549 cell proliferation | no significant neuronal cell death | 19.8 | detected |  |  |  |  | 
O=C(Nc1ccc(Cl)cc1)c1cc2ccccc2cc1OP(=O)(O)O [naphthol AS-E phosphate] | inhibited A549 cell proliferation |  | 22.7 | detected | strongly inhibited | no significant neuronal cell death | complete hydrolysis | > 8.5 | did not generate any hydrolysis product
